According to ChEMBL document CHEMBL1149400, “Tethering identifies fragment that yields potent inhibitors of human caspase-1” (Bioorg Med Chem Lett, 2006):
pEC50, pKi: −log10 of the molar value. Residues, ends and D or L forms follow the SMILES beside them. *: point of attachment. Cbz = O=C(OCc1ccccc1)*

Tests used:
Caspase-1 = biological target: T1, Caspase-1 (Homo sapiens, UniProt P29466); assay: Inhibitory activity against human Caspase 1
T1 sequence (P29466 whole entry): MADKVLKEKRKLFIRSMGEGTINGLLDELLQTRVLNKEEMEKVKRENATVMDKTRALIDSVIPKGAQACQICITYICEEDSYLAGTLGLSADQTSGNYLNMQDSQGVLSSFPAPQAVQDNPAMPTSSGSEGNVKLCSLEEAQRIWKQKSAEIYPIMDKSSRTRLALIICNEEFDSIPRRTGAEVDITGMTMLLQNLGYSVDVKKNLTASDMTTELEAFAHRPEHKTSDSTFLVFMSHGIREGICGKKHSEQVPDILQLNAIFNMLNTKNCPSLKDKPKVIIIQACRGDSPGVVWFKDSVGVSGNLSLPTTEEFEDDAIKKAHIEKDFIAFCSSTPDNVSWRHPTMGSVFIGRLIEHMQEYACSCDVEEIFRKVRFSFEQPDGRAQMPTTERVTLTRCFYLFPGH

PBMC = assay: Inhibition of IL1-beta production in PBMC; type: functional, cell-based; conditions: Homo sapiens

SMILES	pKi (Caspase-1)	pEC50 (PBMC)
O=C[C@H](CC(=O)O)NC(=O)C(CCCCNC(=O)c1ccc(Nc2cnc3ccccc3n2)cc1)c1ccccc1F (some centres not stated)	8.10	–
O=C[C@H](CC(=O)O)NC(=O)C(CCCCNC(=O)c1ccc(Nc2cnccn2)cc1)c1cccs1 (some centres not stated)	7.00	4.70
O=C[C@H](CC(=O)O)NC(=O)CCCCCC(=O)Nc1ccc(Nc2cnc3ccccc3n2)cc1	5.68	–
O=C[C@H](CC(=O)O)NC(=O)c1csc(CNC(=O)c2ccc(Nc3cnc4ccccc4n3)cc2)c1	6.92	–
Cc1cc(C(=O)NCCCCC(C(=O)N[C@H](C=O)CC(=O)O)c2cccs2)ccc1Nc1cnc2ccccc2n1 (some centres not stated)	8.40	5.11
CC(C)[C@H](NC(=O)[C@H](Cc1ccc(O)cc1)NC(=O)OCc1ccccc1)C(=O)N[C@@H](C)C(=O)N[C@H](C=O)CC(=O)O	6.74	5.41
O=C[C@H](CC(=O)O)NC(=O)C(CCCCNC(=O)c1ccc(Nc2cnc3ccccc3n2)cc1)c1ccccc1 (some centres not stated)	8.30	–
O=C[C@H](CC(=O)O)NC(=O)c1ccc(CNC(=O)c2ccc(Nc3cnc4ccccc4n3)cc2)cc1	7.00	–
O=C[C@H](CC(=O)O)NC(=O)CCCCNC(=O)c1ccc(Nc2cnc3ccccc3n2)cc1	5.55	–
O=C[C@H](CC(=O)O)NC(=O)c1ccc(CNC(=O)c2ccc(Nc3cnc4ccccc4n3)cc2)nc1	8.30	–
O=C[C@H](CC(=O)O)NC(=O)c1ccc(CNC(=O)c2ccc(Nc3cnc4ccccc4n3)cc2)o1	5.68	–
O=C[C@H](CC(=O)O)NC(=O)c1ccc(CNC(=O)c2ccc(Nc3cnc4ccccc4n3)cc2)s1	7.46	–
CC(C)[C@H](NC(=O)c1ccc(Nc2cnc3ccccc3n2)cc1)C(=O)N[C@@H](C)C(=O)N[C@H](C=O)CC(=O)O	8.40	–
O=C[C@H](CC(=O)O)NC(=O)c1cnc(CNC(=O)c2ccc(Nc3cnc4ccccc4n3)cc2)cn1	6.00	–
O=C[C@H](CC(=O)O)NC(=O)C(CCCCNC(=O)c1ccc(Nc2cnc3ccccc3n2)cc1)c1cccs1 (some centres not stated)	8.15	4.69
O=C[C@H](CC(=O)O)NC(=O)C(CCCCNC(=O)c1ccc(Oc2cnc3ccccc3n2)cc1)c1cccs1 (some centres not stated)	–	4.91
Cc1ccc2nc(Nc3ccc(C(=O)NCCCCC(C(=O)N[C@H](C=O)CC(=O)O)c4cccs4)cc3)cnc2c1 (some centres not stated)	8.30	–
O=C[C@H](CC(=O)O)NC(=O)CCCNC(=O)c1ccc(Nc2cnc3ccccc3n2)cc1	5.28	–
O=C[C@H](CC(=O)O)NC(=O)CCCCCNC(=O)c1ccc(Nc2cnc3ccccc3n2)cc1	6.72	5.38
O=C[C@H](CC(=O)O)NC(=O)[C@H]1CC[C@H](CNC(=O)c2ccc(Nc3cnc4ccccc4n3)cc2)CC1	5.71	–
O=C[C@H](CC(=O)O)NC(=O)CCCCCNC(=O)c1ccc(Oc2cnc3ccccc3n2)cc1	5.62	4.57
Cc1cc(C(=O)NCCCCCC(=O)N[C@H](C=O)CC(=O)O)ccc1Nc1cnc2ccccc2n1	6.49	5.11
O=C[C@H](CC(=O)O)NC(=O)CCCCCCNC(=O)c1ccc(Nc2cnc3ccccc3n2)cc1	5.59	–
O=C[C@H](CC(=O)O)NC(=O)CCCCCNC(=O)c1ccc(Nc2cnccn2)cc1	4.43	< 3.70
CC(C)[C@H](NC(=O)OCc1ccccc1)C(=O)N[C@@H](C)C(=O)N[C@H](C=O)CC(=O)O (Cbz-Val-Ala-Asp-aldehyde)	8.10	–
O=C[C@H](CC(=O)O)NC(=O)c1cc(NC(=O)c2ccc(Nc3cnc4ccccc4n3)cc2)cs1	6.59	–
CCC(CCCCNC(=O)c1ccc(Nc2cnc3ccccc3n2)cc1)C(=O)N[C@H](C=O)CC(=O)O (some centres not stated)	7.80	–
O=C[C@H](CC(=O)O)NC(=O)Cc1ccc(CNC(=O)c2ccc(Nc3cnc4ccccc4n3)cc2)s1	6.92	–
O=C[C@H](CC(=O)O)NC(=O)C(CCCCNC(=O)c1ccc(Nc2cncc(Cl)n2)cc1)c1cccs1 (some centres not stated)	7.27	–
